Assay results: article PMC12024264, “Frog Skin Peptides Hylin-a1, AR-23, and RV-23: Promising Tools Against Carbapenem-Resistant Escherichia coli and Klebsiella pneumoniae Infections” (Antibiotics, 2025)
Where no end group is shown, it is not given here.

Experiments:
[1] = system: K. pneumoniae ATCC 10031; assay: Biofilm initial cell attachment assay; type: cell-based, Klebsiella pneumoniae; conditions: 2 h; for concentration of total reduction in biofilm attachment (antibiofilm MIC): initial cell attachment, 37 °C, peptides 50-1.56 μM, absorbance 570 nm
Procedure: (§1) We also investigated the ability of peptides to interfere with biofilm using three different assays (refer to the Section 4) against K. pneumonia and E. coli.
(§2) Figure 3 The effect of Hylin-a1, AR-23, and RV-23 on the initial cell attachment of biofilm formation. […] Statistical analysis was performed by One-way ANOVA followed by Dunnett’s multiple comparisons test.
(§3) The anti-biofilm activity of peptides was evaluated against E. coli and K. pneumoniae ATCC strains. Bacterial cultures were grown overnight, then diluted to an OD600 of 0.1 in MH broth supplemented with 1% (v/v) glucose. A 100 μL aliquot of the bacterial suspension was combined with an equal volume of peptides at non-cytotoxic concentrations in a 96-well plate and incubated at 37 °C for 2 h. Following incubation, non-adherent planktonic cells were removed by washing with phosphate-buffered saline (PBS, Microtech), and adherent cells were incubated with MTT solution for 3 h at 37 °C. Additionally, adherent cells were collected, resuspended in PBS, and plated on agar for viable cell counting. Serial dilutions were performed for each peptide, and CFU/mL were determined after 20 h of incubation at 37 °C (Figure S2). Absorbance was measured at 570 nm to evaluate adhesion percentage.

[2] = system: E. coli ATCC 25992; assay: Biofilm initial cell attachment assay; type: cell-based, Escherichia coli; conditions: 2 h; for concentration of total reduction in biofilm attachment (antibiofilm MIC): initial cell attachment, 37 °C, peptides 50-1.56 μM, absorbance 570 nm
Procedure: as §1, §2, §3

[3] = system: K. pneumoniae ATCC 10031; assay: Time-kill assay; type: cell-based, Klebsiella pneumoniae
Procedure: This in vitro method allows for assessing the kinetics of bacterial killing by peptides over time. […] Specifically, at each time point, 50 μL aliquots of the bacterial–peptide mixtures were collected and plated on agar (see Materials and Methods for further details). Following incubation, colony-forming units (CFUs) were counted and the killing rate of each peptide concentration was calculated (Figure 2).
Figure 2 Evaluation of the kinetic-killing effect of Hylin-a1, AR-23, and RV-23 against K. pneumoniae and E. coli. […] Untreated bacteria was used as control negative (CTR- in black).
Using the same conditions as the MIC assay, a time–kill test was performed to monitor bacterial growth over time. […] Finally, bacterial colonies were counted, and the CFU/mL was calculated.

[4] = system: E. coli 1376; conditions: carbapenemase NDM (class B), rectal swab, N/D = no antibacterial activity detected; for MIC: microdilution, 37 °C, 20 h
Procedure: (§4) Each strain was grown in Mueller Hinton Broth (MH Broth), and 5 × 10^5 CFU/mL was used to evaluate antibacterial activity. Clinical carbapenem-resistant K. pneumoniae and E. coli isolates were collected at the AOU of Virology and Microbiology of the University of Campania “Luigi Vanvitelli”.
(§5) The antimicrobial activity of Hylin-a1, AR-23, and RV-23 was investigated using a microdilution assay as reported by the National Committee on Clinical Laboratory Standards (NCCLS) guidelines against a broad spectrum of Gram-negative bacteria. […] In 96-well, the standardized bacterial inoculum (5 × 10^5 colony forming units, CFU/mL) was inoculated together with AMPs and incubated at 37 °C for 20 h. After the time of incubation, optical density (OD) was measured at TECAN, and data were expressed as a percentage of inhibition. In addition to assessing the MIC values, the bactericidal effect was also studied as reported elsewhere.

[5] = system: K. pneumoniae 1746; conditions: carbapenemase VIM (class B), rectal swab; microdilution, 37 °C, 20 h; N/D = no antibacterial activity detected
Procedure: as §4, §5

[6] = system: E. coli 2267; conditions: carbapenemase NDM (class B), rectal swab, N/D = no antibacterial activity detected; for MIC: microdilution, 37 °C, 20 h
Procedure: as §4, §5

[7] = system: E. coli 3140; conditions: carbapenemase OXA-48 (class D), urine; microdilution, 37 °C, 20 h; N/D = no antibacterial activity detected
Procedure: as §4, §5

[8] = system: K. pneumoniae 1745; conditions: carbapenemase KPC (class A), ulcer, N/D = no antibacterial activity detected; for MIC: microdilution, 37 °C, 20 h
Procedure: as §4, §5

[9] = system: E. coli; assay: Checkerboard assay with meropenem; conditions: for MIC of peptide in combination with meropenem: checkerboard, 20 h, OD600
[10] = system: K. pneumoniae ATCC 10031; conditions: for MBC: colonies' growth on agar plates after microdilution, N/D = not detected antibacterial activity; for MIC: microdilution (NCCLS), MH broth, 5 × 10^5 CFU/mL, 37 °C, 20 h, absorbance, 50 to 1.56 μM
Procedure: (§6) The three peptides were tested for their antibacterial activity. […] As described in the Materials and Methods section, the antibacterial effect of peptides was investigated using a microdilution assay. Each concentration of AMPs was inoculated with bacteria in 96-well plates and incubated at 37 °C for 20 h. After that, MIC values were determined by analyzing absorbance and expressed as a percentage of inhibition. MBC was assessed by observing the colonies’ growth on agar plates, as described elsewhere.
as §4, §5

[11] = system: E. coli ATCC 25992; conditions: for MBC: colonies' growth on agar plates after microdilution, N/D = not detected antibacterial activity; for MIC: microdilution (NCCLS), MH broth, 5 × 10^5 CFU/mL, 37 °C, 20 h, absorbance, 50 to 1.56 μM
Procedure: as §6, §4, §5

[12] = Serum stability assay; type: in vitro ADME, bovine; conditions: 10% FBS
Procedure: The susceptibility of Hylin-a1, AR-23, and RV-23 to proteolytic degradation in serum was evaluated, following the protocol reported in Section 4.3.
Figure 6 AMP stability in serum. Stability profiles of Hylin-a1 (red line), AR-23 (gray line), and RV-23 (black line) are reported. All stability tests were performed at least in triplicate. LC-MS analyses were performed using an Agilent 1260 Infinity II LC/MSD system (Milan, Italy). The percentages of intact peptides after different time points of incubation in serum were determined by integrating RP-HPLC peaks from the chromatograms recorded at a wavelength of 210 nm. The test was performed in triplicate, and the data are presented as mean values, with error bars representing standard deviations.
Peptides were mixed with 10% FBS at a final concentration of 0.2 mg/mL and incubated in a water bath at 37 °C. […] Then, the mixture was diluted with 0.1% TFA in H2O (1:1). Samples were characterized using LC-MS on a C18 Aeris Peptide column (100 × 2.1 mm), applying a linear gradient from 5 to 80% solvent B (0.1% TFA in CH3CN) over solvent A (0.1% TFA in water) in 15 min at a flow rate of 0.2 mL/min. All stability tests were performed at least in triplicate. LC-MS analyses were performed using an Agilent 1260 Infinity II LC/MSD system (Milan, Italy).

Substance | concentration of total reduction in biofilm attachment (antibiofilm MIC) [1] [µM] | concentration of total reduction in biofilm attachment (antibiofilm MIC) [2] [µM] | MIC [4] [µM] | MIC [5] [µM] | MBC [6] [µM] | MIC [6] [µM] | MIC [7] [µM] | MBC [8] [µM] | MIC [8] [µM] | MIC of peptide in combination with meropenem [9] [µM] | MBC [10] [µM] | MIC [10] [µM] | MBC [11] [µM] | MIC [11] [µM] | also measured
IFGAILPLALGALKNLIK-NH2 [Hylin-a1] | 50 | 50 | 25 | 25 | 50 | 25 | 50 | 50 | 50 | 3.125 | 6.25 | 6.25 | 25 | 25 | reduction of biofilm (initial attachment) ([1]; at 50 μM): 80–100%; reduction of biofilm (initial attachment) ([2]; at 50 μM): 80–100%; bacterial killing in time-kill assay [3]: kills bacteria; combinatory effect of peptide and meropenem ([9]; interpretation of FICI by Table 4): partial synergism; remaining at 16 h ([12]; serum, after 16 h, 0.2 mg/mL, 37 °C, RP-HPLC peaks at 210 nm, mean of triplicate, read-out: intact peptide remaining in solution): 60%
RIGVLLARLPKLFSLFKLMGKKV-NH2 [RV-23] | 50 | 12.5 | 6.25 | 12.5 | 12.5 | 12.5 | 25 | 25 | 12.5 | 6.25 | 12.5 | 6.25 | 12.5 | 12.5 | time to significant reduction in bacterial viability / bactericidal effect [3]: ≤ 2 h; MBC [4]: 6.25 µM; percentage of intact fragments, almost constant up to 24 h ([12]; 0.2 mg/mL, 37 °C, RP-HPLC peaks at 210 nm, mean of triplicate, after the first 2 h up to 24 h): around 30%; half-life ([12]; serum, peptide 0.2 mg/mL, 37 °C water bath, ethanol precipitation, LC-MS, RP-HPLC peak integration at 210 nm, at least triplicate): < 2 h
